The data set in a line: recombinant UMI read abundance after kanamycin selection (control-corrected) (log10(CPM+1)); higher = more efficient recombination; extreme values may be limits of the assay; sequences stand for … in AGTGCAGAGAAAATCGGCCAGTTTTCTCTGCCTGCAGTCCGCATGCCGTGGGACCCCTTGGGTTCTAACCTGTTGCCTAGATTTATGCAGCGGACTGCCTTTCTCCCAAAGTGATAAACCGG…AGGTTGGTTTCACT; site = the 11-nt donor. The procedure, abridged:
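Each donor and donor-binding-loop pair was tracked by a 12-nt UMI on a plasmid carrying a promoterless kanamycin gene. With a second plasmid supplying a fixed target and T7-inducible IS621 bridge recombinase, the pool was plated in Escherichia coli on IPTG (0.07 mM) plus kanamycin or unselected. Sequencing of recombinant UMIs across the donor–target junction gave counts expressed as log10(CPM+1) after replicate averaging and control-derived scaling.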
Turning to “ACCTAGACATGGACCGGTTTTCCCGGTAATCCGTATTTGGG (site AACTAGACTCC)”, the “recombinant UMI read abundance (log10)” value came out at 0.0442. Take “ACCTAGACATGGACCGGTTTTCCCGGTAATCCGTATTTGGG (site ACATAGACTCC)”: the “recombinant UMI read abundance (log10)” value came to 0.00696.

For “ACCTAGACATGGACCGGTTTTCCCGGTAATCCGTATTTGGG (site ACCAAGACTCC)”, the “recombinant UMI read abundance (log10)” value was 0.00495. For “ACCTAGACATGGACCGGTTTTCCCGGTAATCCGTATTTGGG (site ACCCAGACTCC)”, the “recombinant UMI read abundance (log10)” value was 0.00611. With “ACCTAGACATGGACCGGTTTTCCCGGTAATCCGTATTTGGG (site ACCGAGACTCC)” the figure was 0. On to “ACCTAGACATGGACCGGTTTTCCCGGTAATCCGTATTTGGG (site ACCTAAACTCC)”, for which the “recombinant UMI read abundance (log10)” value amounted to 0. On to “ACCTAGACATGGACCGGTTTTCCCGGTAATCCGTATTTGGG (site ACCTACACTCC)”, for which the “recombinant UMI read abundance (log10)” value came out at 0.0139. The figure for “ACCTAGACATGGACCGGTTTTCCCGGTAATCCGTATTTGGG (site ACCTAGACTAC)” is 0.0239; for “ACCTAGACATGGACCGGTTTTCCCGGTAATCCGTATTTGGG (site ACCTAGACTCA)” it is 0.0191; for “ACCTAGACATGGACCGGTTTTCCCGGTAATCCGTATTTGGG (site ACCTAGACTCC)” it is 0.0334. As for “ACCTAGACATGGACCGGTTTTCCCGGTAATCCGTATTTGGG (site ACCTAGACTCG)”, the “recombinant UMI read abundance (log10)” value turned out to be 0.634.

Regarding “ACCTAGACATGGACCGGTTTTCCCGGTAATCCGTATTTGGG (site ACCTAGACTCT)”, the “recombinant UMI read abundance (log10)” value was found to be 0.00788. Regarding “ACCTAGACATGGACCGGTTTTCCCGGTAATCCGTATTTGGG (site ACCTAGACTGC)”, the “recombinant UMI read abundance (log10)” value was 0.00778. As to “ACCTAGACATGGACCGGTTTTCCCGGTAATCCGTATTTGGG (site ACCTAGACTTC)”, the “recombinant UMI read abundance (log10)” value came to 0.00986. The figure for “ACCTAGACATGGACCGGTTTTCCCGGTAATCCGTATTTGGG (site ACCTAGCCTCC)” is 0.0119; for “ACCTAGACATGGACCGGTTTTCCCGGTAATCCGTATTTGGG (site ACCTAGGCTCC)” it is 0.0977; for “ACCTAGACATGGACCGGTTTTCCCGGTAATCCGTATTTGGG (site ACCTAGTCTCC)” it is 0.0195. With “ACCTAGACATGGACCGGTTTTCCCGGTAATCCGTATTTGGG (site ACCTATACTCC)” the figure was 0.333. The figure for “ACCTAGACATGGACCGGTTTTCCCGGTAATCCGTATTTGGG (site ACCTCGACTCC)” is 0.00246; for “ACCTAGACATGGACCGGTTTTCCCGGTAATCCGTATTTGGG (site ACCTGGACTCC)” it is 0.0143; for “ACCTAGACATGGACCGGTTTTCCCGGTAATCCGTATTTGGG (site ACCTTGACTCC)” it is 0.0253.

As for “ACCTAGACATGGACCGGTTTTCCCGGTAATCCGTATTTGGG (site ACGTAGACTCC)”, the “recombinant UMI read abundance (log10)” value was determined as 0.0154.

Consider “ACCTAGACATGGACCGGTTTTCCCGGTAATCCGTATTTGGG (site ACTTAGACTCC)”, for which the “recombinant UMI read abundance (log10)” value was determined as 0.0151. In the case of “ACCTAGACATGGACCGGTTTTCCCGGTAATCCGTATTTGGG (site AGCTAGACTCC)”, the “recombinant UMI read abundance (log10)” value came to 0.0336. Take “ACCTAGACATGGACCGGTTTTCCCGGTAATCCGTATTTGGG (site ATCTAGACTCC)”: the “recombinant UMI read abundance (log10)” value came out at 0.015.

For “ACCTAGACATGGACCGGTTTTCCCGGTAATCCGTATTTGGG (site CCCTAGACTCC)”, the “recombinant UMI read abundance (log10)” value was found to be 0.00828.

Consider “ACCTAGACATGGACCGGTTTTCCCGGTAATCCGTATTTGGG (site GCCTAGACTCC)”, for which the “recombinant UMI read abundance (log10)” value amounted to 0.00312. For the sequence “ACCTAGACATGGACCGGTTTTCCCGGTAATCCGTATTTGGG (site TCCTAGACTCC)”, the “recombinant UMI read abundance (log10)” value worked out at 0.0161. Consider “ACCTAGCCATGGACCGGTTTTCCCGGTAATCCGTATTTGCC (site ACCTAGCCTGG)”, for which the “recombinant UMI read abundance (log10)” value was determined as 0.

The values above are taken from the supplement of paper PMC11208160.
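Further: IS621 bridge recombinase in Escherichia coli cells against a fixed T5 target plasmid.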
